Results published in patent US10988478B1, “Pyrazolo[1,5a]pyrimidine derivatives as IRAK4 modulators” (Genentech, Inc., priority 2015, dated 2021).

Molecular target: human IRAK4 (Homo sapiens (Human), UniProt Q9NWZ3)
Test: IRAK4 kinase inhibition, Transcreener fluorescence polarization ADP assay
Type: biochemical
Conditions: recombinant full-length His6-IRAK4; 125 uM ATP; 90 min; Ki computed using ATP Km 642 uM
Protocol: Compounds were assayed for inhibition of human IRAK4 and IRAK1 catalytic activity using recombinant enzyme produced from insect cells. Full-length IRAK4 protein, carrying an N-terminal His6-Tag, was obtained from Life Technologies (Carlsbad, Calif., USA). The IRAK1 construct was produced internally and was comprised of IRAK1 residues Arg194 to Ser712, preceded by an NH2-terminal His6 tag and the coding sequence for glutathione-S-transferase.

human IRAK4, sequence (Q9NWZ3 whole entry): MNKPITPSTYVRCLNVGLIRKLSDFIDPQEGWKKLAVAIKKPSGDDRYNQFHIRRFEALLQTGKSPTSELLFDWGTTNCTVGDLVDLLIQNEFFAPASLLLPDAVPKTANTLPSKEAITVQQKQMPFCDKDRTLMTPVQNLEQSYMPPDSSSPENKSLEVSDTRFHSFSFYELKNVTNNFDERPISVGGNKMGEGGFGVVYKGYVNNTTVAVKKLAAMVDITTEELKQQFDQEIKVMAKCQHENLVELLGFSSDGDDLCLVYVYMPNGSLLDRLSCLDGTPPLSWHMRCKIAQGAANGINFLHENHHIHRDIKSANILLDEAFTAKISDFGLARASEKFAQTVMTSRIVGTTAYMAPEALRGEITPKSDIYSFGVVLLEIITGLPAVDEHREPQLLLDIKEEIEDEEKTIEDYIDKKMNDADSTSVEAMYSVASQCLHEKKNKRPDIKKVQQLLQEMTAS

Compound	Ki
O=C(Nc1cc2c(cc1N1CCOCC1)OCCN2)c1cnn2cccnc12 [Example 9, N-(7-Morpholino-3,4-dihydro-2H-benzo[b][1,4]oxazin-6-yl)pyrazolo[1,5-a]pyrimidine-3-carboxamide]	98 nM
CC1COc2cc(N3CCOCC3)c(NC(=O)c3cnn4cccnc34)cc2N1 (centres unmarked) [Example 10, N-(3-Methyl-7-morpholino-3,4-dihydro-2H-benzo[b][1,4]oxazin-6-yl)pyrazolo[1,5-a]pyrimidine-3-carboxamide]	270 nM
CC1CNc2cc(NC(=O)c3cnn4cccnc34)c(N3CCOCC3)cc2O1 (centres unmarked) [Example 11, N-(2-Methyl-7-morpholino-3,4-dihydro-2H-benzo[b][1,4]oxazin-6-yl)pyrazolo[1,5-a]pyrimidine-3-carboxamide]	72 nM
Cc1cnc2c(C(=O)Nc3cc4c(cc3N3CCC(CO)CC3)OC(C)(C)C4)cnn2c1 [Example 12, N-(6-(4-(Hydroxymethyl)piperidin-1-yl)-2,2-dimethyl-2,3-dihydrobenzofuran-5-yl)-6-methylpyrazolo[1,5-a]pyrimidine-3-carboxamide]	2 nM
CC1(C)Cc2cc(NC(=O)c3cnn4cccnc34)c(N3CC[C@H](CO)C3)cc2O1 [Example 13, (S)—N-(6-(3-(hydroxymethyl)pyrrolidin-1-yl)-2,2-dimethyl-2,3-dihydrobenzofuran-5-yl)pyrazolo[1,5-a]pyrimidine-3-carboxamide]	6.7 nM
CC1Cc2cc(NC(=O)c3cnn4cccnc34)c(N3CCOCC3)cc2O1 (centres unmarked) [Example 14, N-(2-Methyl-6-morpholino-2,3-dihydrobenzofuran-5-yl)pyrazolo[1,5-a]pyrimidine-3-carboxamide]	19 nM
CC1(C)Cc2cc(NC(=O)c3cnn4cccnc34)c(N3CC[C@@H](CO)C3)cc2O1 [Example 15, (R)—N-(6-(3-(Hydroxymethyl)pyrrolidin-1-yl)-2,2-dimethyl-2,3-dihydrobenzofuran-5-yl)pyrazolo[1,5-a]pyrimidine-3-carboxamide]	12 nM
Cc1cnc2c(C(=O)Nc3cc4c(cc3N3CCC(CO)CC3)OC(C)(CO)C4)cnn2c1 (centres unmarked) [Example 16, N-(2-(Hydroxymethyl)-6-(4-(hydroxymethyl)piperidin-1-yl)-2-methyl-2,3-dihydrobenzofuran-5-yl)-6-methylpyrazolo[1,5-a]pyrimidine-3-carboxamide]	1.9 nM
CC1(C)CN(c2cc3c(cc2NC(=O)c2cnn4cccnc24)CC(C)(CO)O3)CCO1 (centres unmarked) [Example 17, N-(6-(2,2-Dimethylmorpholino)-2-(hydroxymethyl)-2-methyl-2,3-dihydrobenzofuran-5-yl)pyrazolo[1,5-a]pyrimidine-3-carboxamide]	180 nM
CC1(CO)CCN(c2cc3c(cc2NC(=O)c2cnn4cccnc24)CC(C)(C)O3)C1 (centres unmarked) [Example 18, N-(6-(3-(Hydroxymethyl)-3-methylpyrrolidin-1-yl)-2,2-dimethyl-2,3-dihydrobenzofuran-5-yl)pyrazolo[1,5-a]pyrimidine-3-carboxamide]	21 nM
CC1(CO)Cc2cc(NC(=O)c3cnn4cccnc34)c(N3CCN(CC(F)F)CC3)cc2O1 (centres unmarked) [Example 19, N-[6-[4-(2,2-Difluoroethyl)piperazin-1-yl]-2-(hydroxymethyl)-2-methyl-3H-benzofuran-5-yl]pyrazolo[1,5-a]pyrimidine-3-carboxamide]	3.3 nM
CNC[C@H]1OC[C@@H](c2cc3c(cc2NC(=O)c2cnn4cccnc24)CC(C)(C)O3)CO1 [Example 20, Cis-N-[2,2-dimethyl-6-[2-(methylaminomethyl)-1,3-dioxan-5-yl]-3H-benzofuran-5-yl]pyrazolo[1,5-a]pyrimidine-3-carboxamide]	780 nM
CCC1(C)Cc2cc(NC(=O)c3cnn4cccnc34)c(N3CCOCC3)cc2O1 (centres unmarked) [Example 21, N-(2-Ethyl-2-methyl-6-morpholino-2,3-dihydrobenzofuran-5-yl)pyrazolo[1,5-a]pyrimidine-3-carboxamide]	6.4 nM
CN(C)C(=O)C1(C)Cc2cc(NC(=O)c3cnn4cccnc34)c(N3CCOCC3)cc2O1 (centres unmarked) [Example 23, N-(2-(Dimethylcarbamoyl)-2-methyl-6-morpholino-2,3-dihydrobenzofuran-5-yl)pyrazolo[1,5-a]pyrimidine-3-carboxamide]	31 nM
CC1(C)Cc2cc(NC(=O)c3cnn4cccnc34)c(N3CCC(C(N)C(F)(F)F)CC3)cc2O1 (centres unmarked) [Example 24, N-[6-[4-(1-Amino-2,2,2-trifluoro-ethyl)-1-piperidyl]-2,2-dimethyl-3H-benzofuran-5-yl]pyrazolo[1,5-a]pyrimidine-3-carboxamide]	2.9 nM
COCC1(C)Cc2cc(NC(=O)c3cnn4cccnc34)c(N3CCOCC3)cc2O1 (centres unmarked) [Example 25, N-(2-(Methoxymethyl)-2-methyl-6-morpholino-2,3-dihydrobenzofuran-5-yl)pyrazolo[1,5-a]pyrimidine-3-carboxamide]	10 nM

Compound	Ki
CC1(CO)Cc2cc(NC(=O)c3cnn4cccnc34)c(N3CCC(F)(F)CC3)cc2O1 (centres unmarked) [Example 26, N-[6-(4,4-Difluoro-1-piperidyl)-2-(hydroxymethyl)-2-methyl-3H-benzofuran-5-yl]pyrazolo[1,5-a]pyrimidine-3-carboxamide]	5.1 nM
Cc1cnc2c(C(=O)Nc3cc4c(cc3N3CCOCC3)O[C@@](C)(CO)C4)cnn2c1 [Example 29, (R)—N-(2-(hydroxymethyl)-2-methyl-6-morpholino-2,3-dihydrobenzofuran-5-yl)-6-methylpyrazolo[1,5-a]pyrimidine-3-carboxamide]	9 nM
Cc1cnc2c(C(=O)Nc3cc4c(cc3N3CCOCC3)O[C@](C)(CO)C4)cnn2c1 [Example 30, (S)—N-(2-(hydroxymethyl)-2-methyl-6-morpholino-2,3-dihydrobenzofuran-5-yl)-6-methylpyrazolo[1,5-a]pyrimidine-3-carboxamide]	32 nM
CC1(C)Cc2cc(NC(=O)c3cnn4cccnc34)c(N3CCOCC3)cc2O1 [Example 33, N-(2,2-dimethyl-6-morpholino-2,3-dihydrobenzofuran-5-yl)pyrazolo[1,5-a]pyrimidine-3-carboxamide]	5 nM
COc1cc2c(cc1NC(=O)c1cnn3cccnc13)CC(C)(C)O2 [Example 34, N-(6-Methoxy-2,2-dimethyl-2,3-dihydrobenzofuran-5-yl)pyrazolo[1,5-a]pyrimidine-3-carboxamide]	38 nM
O=C(Nc1cc2c(cc1N1CCOCC1)OCCCN2)c1cnn2cccnc12 [Example 35, N-(8-Morpholino-2,3,4,5-tetrahydrobenzo[b][1,4]oxazepin-7-yl)pyrazolo[1,5-a]pyrimidine-3-carboxamide]	690 nM
CC1(C)CN(c2cc3c(cc2NC(=O)c2cnn4cccnc24)C[C@](C)(CO)O3)CCO1 [Example 36, (R)—N-(6-(2,2-dimethylmorpholino)-2-(hydroxymethyl)-2-methyl-2,3-dihydrobenzofuran-5-yl)pyrazolo[1,5-a]pyrimidine-3-carboxamide]	150 nM
CC1(C)CN(c2cc3c(cc2NC(=O)c2cnn4cccnc24)C[C@@](C)(CO)O3)CCO1 [Example 37, (S)—N-(6-(2,2-dimethylmorpholino)-2-(hydroxymethyl)-2-methyl-2,3-dihydrobenzofuran-5-yl)pyrazolo[1,5-a]pyrimidine-3-carboxamide]	370 nM
CC1(C(=O)O)Cc2cc(NC(=O)c3cnn4cccnc34)c(N3CCOCC3)cc2O1 (centres unmarked) [Example 38, 2-Methyl-6-morpholino-5-(pyrazolo[1,5-a]pyrimidine-3-carboxamido)-2,3-dihydrobenzofuran-2-carboxylicacid]	360 nM
O=C(Nc1cc2c(cc1N1CCOCC1)OC1(CCOCC1)C2)c1cnn2cccnc12 [Example 39, N-(6-Morpholino-2′,3′,5′,6′-tetrahydro-3H-spiro[benzofuran-2,4′-pyran]-5-yl)pyrazolo[1,5-a]pyrimidine-3-carboxamide]	11 nM
CC1(C)Cc2cc(NC(=O)c3cnn4cccnc34)c(N3CCC(F)(CO)CC3)cc2O1 [Example 40, N-(6-(4-Fluoro-4-(hydroxymethyl)piperidin-1-yl)-2,2-dimethyl-2,3-dihydrobenzofuran-5-yl)pyrazolo[1,5-a]pyrimidine-3-carboxamide]	1 nM
CC1(C)Cc2cc(NC(=O)c3cnn4cccnc34)c(N3CCS(=O)(=O)CC3)cc2O1 [Example 41, N-[6-(1,1-Dioxo-thiomorpholin-4-yl)-2,2-dimethyl-2,3-dihydro-1-benzofuran-5-yl]pyrazolo[1,5-a]pyrimidine-3-carboxamide]	84 nM
C[C@]1(CO)Cc2cc(NC(=O)c3cnn4cccnc34)c(N3C[C@H]4C[C@@H]3CO4)cc2O1 [Example 42, N—((R)-6-((1R,4R)-2-Oxa-5-azabicyclo[2.2.1]heptan-5-yl)-2-(hydroxymethyl)-2-methyl-2,3-dihydrobenzofuran-5-yl)pyrazolo[1,5-a]pyrimidine-3-carboxamide]	200 nM
C[C@@]1(CO)Cc2cc(NC(=O)c3cnn4cccnc34)c(N3C[C@H]4C[C@@H]3CO4)cc2O1 [Example 43, N—((S)-6-((1R,4R)-2-Oxa-5-azabicyclo[2.2.1]heptan-5-yl)-2-(hydroxymethyl)-2-methyl-2,3-dihydrobenzofuran-5-yl)pyrazolo[1,5-a]pyrimidine-3-carboxamide]	130 nM
C[C@]1(CO)Cc2cc(NC(=O)c3cnn4cccnc34)c(N3C[C@@H]4C[C@H]3CO4)cc2O1 [Example 47, N—((R)-6-((1S,4S)-2-Oxa-5-azabicyclo[2.2.1]heptan-5-yl)-2-(hydroxymethyl)-2-methyl-2,3-dihydrobenzofuran-5-yl)pyrazolo[1,5-a]pyrimidine-3-carboxamide]	180 nM
CNC(=O)[C@]1(C)Cc2cc(NC(=O)c3cnn4cccnc34)c(N3CCOCC3)cc2O1 [Example 48, (S)—N-(2-Methyl-2-(methylcarbamoyl)-6-morpholino-2,3-dihydrobenzofuran-5-yl)pyrazolo[1,5-a]pyrimidine-3-carboxamide]	190 nM
